In patent publication US8101761B2, “(E)-N-{3-[1-(8-fluoro-11H-10-OXA-1-AZA-dibenzo [A,D] cyclohepten-5ylidene)-propyl]-phenyl}-methanesulfonamide as glucocorticoid receptor modulator for the treatment of rheumatoid arthritis” (Eli Lilly and Company, priority 2008, dated 2012):

How the values were obtained:
[1] = test system: serum osteocalcin in male Swiss-Webster mice; test: Serum osteocalcin assay; type: in vivo, mouse; conditions: oral, seven days, 3 mg/Kg/day Compound (I) vs 10 mg/Kg/day prednisolone, serum 24 h after last dose
Text: Bone loss/osteoporosis and the resulting increased risk of fracture is a common and significant adverse effect that results from glucocorticoid therapy. Glucocorticoid induced osteoporosis is believed to result, at least in part, from an inhibition of bone formation. The measurement of serum osteocalcin, a biological marker of bone synthesis, is a recognized tool for assessing the adverse effects of glucocorticoid therapy on bone.
To assess the effects of Compound (I) on bone formation, Compound (I) is formulated in a vehicle comprising 5% carboxymethyl cellulose and 0.25% Tween 80 and administered orally via gavage to sixteen week old male Swiss-Webster mice (Harlan Industries, Indianapolis) for seven days. For comparison, prednisolone is administered orally in the same vehicle. Serum is collected 24 hours after the last dose and osteocalcin levels are determined using a competitive radioimmunoassay modified to a 96 well format. […] The filters are punched and the radioactivity quantitated on a gamma counter. Radioactivity detected on the filters from test samples is inversely proportional to serum osteocalcin concentration. […]

[2] = test system: IL-6 production in human skin fibroblast CCD-39SK cells; test: GR-mediated transrepression: IL-1β-stimulated IL-6 production in human skin fibroblast CCD-39SK cells; type: cell-based; conditions: IL-1β 1 ng/ml
Description: 1. IL-1,3-stimulated IL-6 Production in Human Skin Fibroblast CCD-39SK Cells:
Briefly, human skin fibroblast CCD-39SK cells (20,000 cells/well), obtained from ATCC are seeded in 96-well plates in […] growth medium supplemented with 10% FBS, 100 U/ml penicillin, 100 ug/ml streptomycin and 2 mmol/L L-glutamine. Cells are maintained in a humidified chamber with 5% CO2 at 37° C. Test compounds are added to the wells in various concentrations ranging from a final concentration of about […] to 4.64 μM. 0.1 μM of dexamethasone is used as a positive control. 1-hour post treatment with test compound, IL-1β is added at final concentration of 1 ng/ml; and the reaction mixture is incubated overnight. 10 μl of supernatant is removed from each well and IL-6 concentrations are determined using an ELISA kit, with IL-6 concentrations being quantified by reading absorbance at 450 nm.

CC/C(=C1\c2ccc(F)cc2OCc2ncccc21)c1cccc(NS(C)(=O)=O)c1 [Compound (I), (E)-N-{3-[1-(8-Fluoro-11H-10-oxa-1-aza-dibenzo[a,d]cyclohepten-5-ylidene)-propyl]-phenyl}-methanesulfonamide]
reduction in serum osteocalcin levels [1]: less reduction in serum osteocalcin levels than prednisolone | IC50 ([2]; Homo sapiens, Skin fibroblast, average of n=15, read-out: IC50, inhibition of IL-6 expression): ~8.5 nM | maximal inhibition of the endogenous expression of IL-6 ([2]; n=15): ≥ 90%
